Experimental data as given in patent US9474790B2, “Stable, protracted GLP-1/glucagon receptor co-agonists for medical use” (Novo Nordisk A/S, priority 2013, dated 2016).
Numbered stars: 1 amine (or outer) side, 2 acyl side, 3 side chain; on linkers, the order of the positions; unused ones are H or OH. Square brackets hold non-standard residues; d marks the D form. Side chains are listed from the residue outwards. Peptide text beside a SMILES is read from it. * marks the point of attachment. C18 diacid = O=C(O)CCCCCCCCCCCCCCCCC(=O)*; γGlu = O=C(O)[C@H](CCC(=O)[*:2])N[*:1]; AEEA = NCCOCCOCC(=O)O; Aib = CC(C)(N)C(=O)O

Target: T1, human glucagon receptor (Homo sapiens, UniProt P47871)
T1 construct: expressed in transfected cells; host or cells: BHK cells (parent BHK570, CRE luciferase clone BHK/KZ10-20-48), clone pLJ6'-4-25
Assay: Glucagon receptor binding, 125I-glucagon displacement SPA on isolated membranes
Settings: displacement of 125I-glucagon from membranes; read-out: IC50 GlucR
Description: The purpose of this assay was to test the in vitro receptor binding activity (i.e. affinity) of the glucagon derivatives of the invention. The receptor binding activity is a measure of affinity of a derivative for the human glucagon receptor.
The receptor binding of each compound to the human glucagon receptor was measured in a displacement binding assay. In this type of assay a labelled ligand (in this case 125I-glucagon) is bound to the receptor. Each derivative was added in a series of concentrations to isolated membranes containing the human glucagon receptor and displacement of the labelled ligand is monitored. The receptor binding was reported as the concentration at which half of the labelled ligand is displaced from the receptor, the IC50 value.
In order to test the binding of the derivatives to albumin, the assay may be performed in a very low concentration of serum albumin (max. 0.001% final assay concentration) as well as in the presence of a higher concentration of serum albumin (0.2% final assay concentration). An increase of the IC50 value, in the presence of serum albumin indicates an affinity to serum albumin and represents a method to predict a protracted pharmacokinetic profile of the test substance in animal models.
The following chemicals were used in the assay: DMEM w Glutamax (Gibco 61965-026), Pen/strep (Invitrogen 15140-122), G418 (Invitrogen 10131-027), Versene (Gibco 15040), 1 M Hepes (Gibco 15630), PBS (Invitrogen 14190-094), fetal calf serum (Invitrogen 16140-071), MgCl2 (Merck 1.05832.1000), EDTA (Invitrogen 15575-038), CaCl2 (Sigma, C5080), Tween 20 (Amresco 0850C335), ovalbumin (Sigma A5503), SPA particles (wheat germ agglutinin (WGA) SPA beads, Perkin Elmer RPNQ0001), [125I]-glucagon (produced in-house), OptiPlate™-96 (Packard 6005290).
HME buffer consisted of 25 mM HEPES, 2 mM MgCl2 and 1 mM EDTA, and pH was adjusted to 7.4. Assay buffer consisted of 50 mM HEPES supplemented with 5 mM MgCl2, 1 mM CaCl2, 0.02% Tween 20 and 0.1% Ovalbumin, and pH was adjusted to 7.4.
The cells used in this assay (clone BHK hGCGR A3*25) were BHK cells stable transfected with an expression plasmid containing the cDNA encoding the human glucagon receptor.
The cells were grown at 5% CO2 in DMEM, 10% fetal calf serum, 1% Pen/Strep (Penicillin/Streptomycin) and 1.0 mg/ml of the selection marker G418. To make a membrane preparation the cells were grown to approximately 80% confluence. The cells were washed twice in phosphate-buffered saline and harvested. The cells were pelleted using a brief centrifugation and the cell pellet was kept on ice. Lyse the cells by adding approx. 5 ml HME buffer, mix by pipetting and snap freeze in liquid nitrogen. Thaw quickly and add HME buffer to 10 ml. The cell pellet was homogenised with an ULTRA-THURRAX dispersing instrument for 20-30 sec. The homogenate was centrifuged at 20.000×G, 4° C. for 10 min. The pellet was re-suspended (homogenised) in 1-2 ml HME buffer. The protein concentration was determined. The membranes were aliquoted and snap-frozen in liquid nitrogen and stored at minus 80° C.
1. For the receptor binding assay, 50 μl of the assay buffer was added to each well of an assay plate.
2. Test compounds were serially diluted to give the following concentrations: 8×10EE-7 M, 8×10EE-8 M, 8×10EE-9 M, 8×10EE-10 M, 8×10EE-11 M, 8×10EE-12 M and 8×10EE-13 M. Twenty-five μl were added to appropriate wells in the assay plate.
3. Cell membrane aliquots were thawed and diluted to their working concentration. Fifty μl were added to each well in the assay plate.
4. WGA SPA beads were suspended in assay buffer at 20 mg/ml. The suspension was diluted to 10 mg/ml in assay buffer just prior to addition to the assay plate. Fifty μl were added to each well in the assay plate.
5. The incubation was started by adding 25 μl of 480 pM solution of [125I]-glucagon to each well of the assay plate. A 25 μl aliquot was reserved for measuring total counts/well.
6. The assay plate was incubated for 2 h at 25° C.
7. […]

T1 sequence (P47871 26-477): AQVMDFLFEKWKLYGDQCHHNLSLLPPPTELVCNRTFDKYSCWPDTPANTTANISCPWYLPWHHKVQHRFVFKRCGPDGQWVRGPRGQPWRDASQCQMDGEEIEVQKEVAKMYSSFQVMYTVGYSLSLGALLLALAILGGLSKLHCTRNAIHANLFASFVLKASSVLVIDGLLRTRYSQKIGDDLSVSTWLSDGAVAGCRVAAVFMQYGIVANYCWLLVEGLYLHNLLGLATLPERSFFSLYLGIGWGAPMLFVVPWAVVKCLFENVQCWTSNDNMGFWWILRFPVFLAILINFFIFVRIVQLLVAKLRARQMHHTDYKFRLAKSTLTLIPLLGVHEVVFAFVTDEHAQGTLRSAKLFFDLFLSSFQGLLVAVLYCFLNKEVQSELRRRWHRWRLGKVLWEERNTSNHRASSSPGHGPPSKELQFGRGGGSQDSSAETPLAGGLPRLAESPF

IC50 | Structure (SMILES)
6.7 nM | CC(C)C[C@H](NC(=O)[C@H](Cc1ccc(O)cc1)NC(=O)[C@H](CCCCN)NC(=O)[C@H](CO)NC(=O)[C@H](CC(C)C)NC(=O)[C@H](CC(=O)O)NC(=O)[C@H](CO)NC(=O)[C@@H](NC(=O)[C@H](Cc1ccccc1)NC(=O)[C@@H](NC(=O)CNC(=O)[C@H](CCC(N)=O)NC(=O)C(C)(C)NC(=O)[C@@H](N)Cc1c[nH]cn1)[C@@H](C)O)[C@@H](C)O)C(=O)N[C@@H](CCC(=O)O)C(=O)N[C@@H](CO)C(=O)N[C@@H](CCCNC(=N)N)C(=O)N[C@@H](CCCNC(=N)N)C(=O)N[C@@H](C)C(=O)N[C@@H](CCCNC(=N)N)C(=O)N[C@@H](CCC(=O)O)C(=O)N[C@@H](Cc1ccccc1)C(=O)N[C@H](C(=O)N[C@@H](CCC(N)=O)C(=O)N[C@@H](Cc1c[nH]c2ccccc12)C(=O)N[C@@H](CC(C)C)C(=O)N[C@@H](CC(C)C)C(=O)N[C@@H](CCCCNC(=O)CC[C@H](NC(=O)COCCOCCNC(=O)COCCOCCNC(=O)CC[C@H](NC(=O)CC[C@H](NC(=O)CCCCCCCCCCCCCCCCC(=O)O)C(=O)O)C(=O)O)C(=O)O)C(=O)N[C@H](C(N)=O)[C@@H](C)O)C(C)C [Example 20, N^ε29-[(4S)-4-carboxy-4-[[2-[2-[2-[[2-[2-[2-[[(4S)-4-carboxy-4-[[(4S)-4-carboxy-4-(17-carboxyheptadecanoylamino)butanoyl]amino]butanoyl]amino]ethoxy]ethoxy]acetyl]amino]ethoxy]ethoxy]acetyl]amino]butanoyl]-[Aib2,Leu10,Glu15,Arg20,Glu21,Leu27,Lys28]-Glucagon amide] (H-H[Aib]QGTFTSDLSKYLESRRAREFVQWLLK([γGlu-AEEA-AEEA-γGlu-γGlu-C18 diacid])T-NH2; N-terminus assumed)
6.4 nM | CC(C)C[C@H](NC(=O)[C@H](Cc1ccc(O)cc1)NC(=O)[C@H](CCCCN)NC(=O)[C@H](CO)NC(=O)[C@H](CC(C)C)NC(=O)[C@H](CC(=O)O)NC(=O)[C@H](CO)NC(=O)[C@@H](NC(=O)[C@H](Cc1ccccc1)NC(=O)[C@@H](NC(=O)CNC(=O)[C@H](CCC(N)=O)NC(=O)C(C)(C)NC(=O)[C@@H](N)Cc1c[nH]cn1)[C@@H](C)O)[C@@H](C)O)C(=O)N[C@@H](CCC(=O)O)C(=O)N[C@@H](CO)C(=O)N[C@@H](CCCNC(=N)N)C(=O)N[C@@H](CCCNC(=N)N)C(=O)N[C@@H](C)C(=O)N[C@@H](CCCNC(=N)N)C(=O)N[C@@H](CCC(=O)O)C(=O)N[C@@H](Cc1ccccc1)C(=O)N[C@H](C(=O)N[C@@H](CCC(N)=O)C(=O)N[C@@H](Cc1c[nH]c2ccccc12)C(=O)N[C@@H](CC(C)C)C(=O)N[C@@H](CC(C)C)C(=O)N[C@@H](CCCCNC(=O)CC[C@H](NC(=O)CC[C@H](NC(=O)COCCOCCNC(=O)COCCOCCNC(=O)CC[C@H](NC(=O)CCCCCCCCCCCCCCCCC(=O)O)C(=O)O)C(=O)O)C(=O)O)C(=O)N[C@H](C(N)=O)[C@@H](C)O)C(C)C [Example 23, N^ε28-[(4S)-4-carboxy-4-[[(4S)-4-carboxy-4-[[2-[2-[2-[[2-[2-[2-[[(4S)-4-carboxy-4-(17-carboxyheptadecanoylamino)butanoyl]amino]ethoxy]ethoxy]acetyl]amino]ethoxy]ethoxy]acetyl]amino]butanoyl]amino]butanoyl]-[Aib2,Leu10,Glu15,Arg20,Glu21,Leu27,Lys28]-Glucagon amide] (H-H[Aib]QGTFTSDLSKYLESRRAREFVQWLLK([γGlu-γGlu-AEEA-AEEA-γGlu-C18 diacid])T-NH2; N-terminus assumed)
0.7 nM | CC(C)C[C@H](NC(=O)[C@H](Cc1ccc(O)cc1)NC(=O)[C@H](CCCCN)NC(=O)[C@H](CO)NC(=O)[C@H](CC(C)C)NC(=O)[C@H](CC(=O)O)NC(=O)[C@H](CO)NC(=O)[C@@H](NC(=O)[C@H](Cc1ccccc1)NC(=O)[C@@H](NC(=O)CNC(=O)[C@H](Cc1c[nH]cn1)NC(=O)C(C)(C)NC(=O)[C@@H](N)Cc1c[nH]cn1)[C@@H](C)O)[C@@H](C)O)C(=O)N[C@@H](CCC(=O)O)C(=O)N[C@@H](CO)C(=O)N[C@@H](CCCCN)C(=O)N[C@@H](CCCNC(=N)N)C(=O)N[C@@H](C)C(=O)N[C@@H](CCCNC(=N)N)C(=O)N[C@@H](CCC(=O)O)C(=O)N[C@@H](Cc1ccccc1)C(=O)N[C@H](C(=O)N[C@@H](CCC(N)=O)C(=O)N[C@@H](Cc1c[nH]c2ccccc12)C(=O)N[C@@H](CC(C)C)C(=O)N[C@@H](CC(C)C)C(=O)N[C@@H](CCCCNC(=O)CC[C@H](NC(=O)CC[C@H](NC(=O)COCCOCCNC(=O)COCCOCCNC(=O)CC[C@H](NC(=O)CCCCCCCCCCCCCCCCC(=O)O)C(=O)O)C(=O)O)C(=O)O)C(=O)N[C@H](C(N)=O)[C@@H](C)O)C(C)C [Example 27, N^ε28-[(4S)-4-carboxy-4-[[(4S)-4-carboxy-4-[[2-[2-[2-[[2-[2-[2-[[(4S)-4-carboxy-4-(17-carboxyheptadecanoylamino)butanoyl]amino]ethoxy]ethoxy]acetyl]amino]ethoxy]ethoxy]acetyl]amino]butanoyl]amino]butanoyl]-[Aib2,His3,Leu10,Glu15,Lys17,Arg20,Glu21,Leu27, Lys28]-Glucagon amide] (H-H[Aib]HGTFTSDLSKYLESKRAREFVQWLLK([γGlu-γGlu-AEEA-AEEA-γGlu-C18 diacid])T-NH2; N-terminus assumed)

Structure (SMILES) | IC50
CC(C)C[C@H](NC(=O)[C@H](CC(=O)O)NC(=O)[C@H](CC(C)C)NC(=O)[C@H](Cc1ccc(O)cc1)NC(=O)[C@H](CCCCN)NC(=O)[C@H](CO)NC(=O)[C@H](CC(C)C)NC(=O)[C@H](CC(=O)O)NC(=O)[C@H](CO)NC(=O)[C@@H](NC(=O)[C@H](Cc1ccccc1)NC(=O)[C@@H](NC(=O)CNC(=O)[C@H](CCC(N)=O)NC(=O)C(C)(C)NC(=O)[C@@H](N)Cc1c[nH]cn1)[C@@H](C)O)[C@@H](C)O)C(=O)N[C@@H](CCCCN)C(=O)N[C@@H](CCCNC(=N)N)C(=O)N[C@@H](C)C(=O)N[C@@H](CCCNC(=N)N)C(=O)N[C@@H](CCC(=O)O)C(=O)N[C@@H](Cc1ccccc1)C(=O)N[C@H](C(=O)N[C@@H](CCC(N)=O)C(=O)N[C@@H](Cc1c[nH]c2ccccc12)C(=O)N[C@@H](CC(C)C)C(=O)N[C@@H](CC(C)C)C(=O)N[C@@H](CCCCNC(=O)CC[C@H](NC(=O)CC[C@H](NC(=O)COCCOCCNC(=O)COCCOCCNC(=O)CC[C@H](NC(=O)CCCCCCCCCCCCCCCCC(=O)O)C(=O)O)C(=O)O)C(=O)O)C(=O)N[C@H](C(N)=O)[C@@H](C)O)C(C)C [Example 26, N^ε28-[(4S)-4-carboxy-4-[[(4S)-4-carboxy-4-[[2-[2-[2-[[2-[2-[2-[[(4S)-4-carboxy-4-(17-carboxyheptadecanoylamino)butanoyl]amino]ethoxy]ethoxy]-acetyl]amino]ethoxy]ethoxy]acetyl]amino]butanoyl]amino]butanoyl]-[Aib2,Leu10,Leu16,Lys17,Arg20,Glu21, Leu27,Lys28]-Glucagon amide] (H-H[Aib]QGTFTSDLSKYLDLKRAREFVQWLLK([γGlu-γGlu-AEEA-AEEA-γGlu-C18 diacid])T-NH2) | 4 nM
